Laboratory results taken from patent publication US7326731B2, “Muscarinic agonists” (Eli Lilly and Company, priority 2002, dated 2008).
Read-outs that look alike come from different tables or passages of the source.

Tested on: Male Sprague-Dawley rats
Details: six-hour delay

Nc1c2c(nc3ccccc13)CCCC2 [Tacrine, tacrine]
retention in the eight arm radial maze (3 mg/kg s.c. immediately after the sampling phase): not | retention in the eight arm radial maze (10 mg/kg s.c. immediately after the sampling phase): significantly improved retention
